Reference: EP4755886A1 (Chengdu Chipscreen Pharmaceutical Ltd., priority 2023, dated 2025)

Key:
[1] = test system: wild-type HCT-116 cells; assay: Cell proliferation (MTS), wild-type HCT-116; assay type: cell-based; settings: Homo sapiens, 240 h; wild-type HCT-116, 10 days with compound, MTS reading; read-out: IC50 HCT116 WT
Description: (§1) MTAP^-/- HCT-116 and wild-type HCT-116 cell strains were cultured in complete medium McCoy's 5A (Gibco, 16600082)/10% FBS (Gibco, 10099141C)/1% p/s (Gibco, 15140122) to evaluate the enhanced inhibitory effect of the compounds against the proliferation selectivity of MTAP^-/- HCT-116 cells. On day 0, MTAP^-/- HCT-116 cells or wild-type HCT-116 cells were added to a 96-well cell culture plate (Corning, 3599) at 100 cells/well, and the plate was incubated in an incubator at 37 °C with 5% CO2. The compound was diluted in a 3-fold gradient with DMSO (Sigma, D5879) (initial concentration: 20 µM, 3-fold dilution, 8 concentration points in total). On day 1, the compound was diluted to multiple concentration points, and the cells were treated separately and incubated in the incubator at 37 °C with 5% CO2 for another 10 days. On Day 11, 20 µL of MTS (CellTiter 96® AQueous One Solution Cell Proliferation Assay) (Promega, G3581) was added to each well. […] In the formula, Y represents the inhibition rate, X represents the logarithm of the compound concentration, Top represents the maximum response (the inhibition rate at the maximum compound concentration), Bottom represents the baseline response (the inhibition rate where the compound concentration was 0), Hill Slope represents the slope of the IC50 curve, and IC50 represents the half maximal inhibitory concentration. Table 1. IC50 (µM)

[2] = test system: MTAP^-/- HCT-116 cells; assay: Cell proliferation (MTS), MTAP-/- HCT-116; assay type: cell-based, human; settings: for Selectivity: HCT116 WT IC50 relative to HCT116 MTAP-/- IC50; for IC50: Homo sapiens, 240 h, MTAP-/- HCT-116, 10 days with compound, MTS reading, read-out: IC50 HCT116 MTAP-/-
Text: The colon cancer cell strain HCT-116 (purchased from Nanjing Cobioer) was co-transfected with the gene editing tool CRISPR/Cas9 and sgRNA, and the MTAP^-/- HCT-116 cell strain with biallelic inactivation of MTAP was obtained by assays such as Western Blotting and Sanger sequencing. The MTAP^-/- HCT-116 cell strain was used for compound selectivity screening and evaluation based on the synergistic mechanism of MTAP deletion and PRMT5, including a symmetric dimethylarginine (SDMA) level test, a cell proliferation test, and the like.
as §1, with “On” for “MTAP^-/- HCT-116 and wild-type HCT-116 cell strains were cultured in complete medium McCoy's 5A (Gibco, 16600082)/10% FBS (Gibco, 10099141C)/1% p/s (Gibco, 15140122) to evaluate the enhanced inhibitory effect of the compounds against the proliferation selectivity of MTAP^-/- HCT-116 cells. On”, “concentration.” for “concentration. Table 1. IC50 (µM)”

Row | IC50 [1] | IC50 [2] | SMILES | Selectivity [2]
1 | 1800 nM | 12.9 nM | CN(C(=O)c1ccc2nc(N)c3cnn(C)c3c2c1)C1COc2cc(C#Cc3cnn(C)c3)ccc21 (stereo not shown) [Compound 1, 4-amino-N,1-dimethyl-N-(6-((1-methyl-1H-pyrazol-4-yl)ethynyl)-2,3-dihydrobenzofuran-3-yl)-1H-pyrazolo[4,3-c]quinoline-8-carboxamide] | 140
2 | 1030 nM | 13.9 nM | Cn1cc(C#Cc2ccc3c(c2)OCC3N(C(=O)c2ccc3nc(N)c4cnn(C)c4c3c2)C2CC2)cn1 (stereo not shown) [Compound 2, 4-amino-N-cyclopropyl-1-methyl-N-{6-[(1-methylpyrazol-4-yl)ethynyl]-2,3-dihydro-1-benzofuran-3-yl}pyrazolo[4,3-c]quinoline-8-carboxamide] | 74
3 | 584 nM | 6 nM | CN(C(=O)c1cc2c(cc1F)nc(N)c1cnn(C)c12)C1COc2cc(C#Cc3cnn(C)c3)ccc21 (stereo not shown) [Compound 5, 4-amino-7-fluoro-N,1-dimethyl-N-(6-((1-methyl-1H-pyrazol-4-yl)ethynyl)-2,3-dihydrobenzofuran-3-yl)-1H-pyrazolo[4,3-c]quinoline-8-carboxamide] | 97
4 | 2780 nM | 10.8 nM | CN1CC=C(C#Cc2ccc3c(c2)OCC3N(C)C(=O)c2ccc3nc(N)c4cnn(C)c4c3c2)CC1 (stereo not shown) [Compound 6, 4-amino-N,1-dimethyl-N-(6-((1-methyl-1,2,3,6-tetrahydropyridin-4-yl)ethynyl)-2,3-dihydrobenzofuran-3-yl)-1H-pyrazolo[4,3-c]quinoline-8-carboxamide] | 257
5 | 593 nM | 5.4 nM | CCN(C(=O)c1ccc2nc(N)c3cnn(C)c3c2c1)C1COc2cc(C#Cc3cnn(C)c3)ccc21 (stereo not shown) [Compound 7, 4-amino-N-ethyl-1-methyl-N-(6-((1-methyl-1H-pyrazol-4-yl)ethynyl)-2,3-dihydrobenzofuran-3-yl)-1H-pyrazolo[4,3-c]quinoline-8-carboxamide] | 110
6 | 141 nM | 3 nM | CN(C(=O)c1cc2c(cc1Cl)nc(N)c1cnn(C)c12)C1COc2cc(C#Cc3cnn(C4CC4)c3)ccc21 (stereo not shown) [Compound 8, 4-amino-7-chloro-N-(6-((1-cyclopropyl-1H-pyrazol-4-yl)ethynyl)-2,3-dihydrobenzofuran-3-yl)-N,1-dimethyl-1H-pyrazolo[4,3-c]quinoline-8-carboxamide] | 47
7 | 97.7 nM | 0.9 nM | CN(C(=O)c1cc2c(cc1Cl)nc(N)c1cnn(C)c12)C1COc2cc(C#Cc3cnn(C)c3)ccc21 (stereo not shown) [Compound 9, 4-amino-7-chloro-N,1-dimethyl-N-(6-((1-methyl-1H-pyrazol-4-yl)ethynyl)-2,3-dihydrobenzofuran-3-yl)-1H-pyrazolo[4,3-c]quinoline-8-carboxamide] | 109
8 | 162 nM | 2 nM | Cc1cc2nc(N)c3cnn(C)c3c2cc1C(=O)N(C)C1COc2cc(C#Cc3cnn(C)c3)ccc21 (stereo not shown) [Compound 10, 4-amino-N,1,7-trimethyl-N-(6-((1-methyl-1H-pyrazol-4-yl)ethynyl)-2,3-dihydrobenzofuran-3-yl)-1H-pyrazolo[4,3-c]quinoline-8-carboxamide] | 81
9 |  | 11 nM | CN(C(=O)c1cc2c(cc1F)nc(N)c1cnn(C)c12)[C@@H]1COc2cc(C#Cc3ccc(C4CC4)nc3)ccc21 [Compound 77A, (S)-4-amino-N-(6-((6-cyclopropylpyridin-3-yl)ethynyl)-2,3-dihyrobenzofuran-3-yl)-7-fluoro-N,1-dimethyl-1H-pyrazolo[4,3-c]quinoline-8-carboxamide] | 

Row | SMILES | IC50 [1] | IC50 [2] | Selectivity [2]
10 | CN(C(=O)c1ccc2nc(N)c3c(c2c1)COC3)C1COc2cc(C#Cc3cnn(C)c3)ccc21 (racemic) [Compound 3, 4-amino-N-methyl-N-(6-((1-methyl-1H-pyrazol-4-yl)ethynyl)-2,3-dihydrobenzofuran-3-yl)-1,3-dihydrofuran[3,4-c]quinoline-8-carboxamide] | 4310 nM | 27 nM | 160
